Data published in the supplement of paper PMC10307832.

Tests used:
Test in all cases: relative viability (nuclei count vs DMSO), 5 days (fraction); higher = more cells survive
Nelarabine + Navitoclax = compound: COc1nc(N)nc2c1ncn2[C@@H]1O[C@H](CO)[C@@H](O)[C@@H]1O [Nelarabine] + CC1(C)CCC(c2ccc(Cl)cc2)=C(CN2CCN(c3ccc(C(=O)NS(=O)(=O)c4ccc(N[C@H](CCN5CCOCC5)CSc5ccccc5)c(S(=O)(=O)C(F)(F)F)c4)cc3)CC2)C1 [Navitoclax] (partner 0.5 µM)
Method in brief: (§1)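 Lung cancer cell lines were seeded in 1536-well plates and dosed by pin tool the next day, with either a single drug or a fixed anchor-drug dose combined with five library-drug doses (not always all listed) spaced in √10 steps. Five days later, one step fixed the cells and stained their nuclei (final 0.05% Triton X-100, 1% formaldehyde, 1 ug/ml Hoechst), and nuclei were counted on 4× images. Relative viability is the nuclei count in treated wells divided by the count in vehicle wells, and each value is the median of duplicate plates.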

Nelarabine + Luminespib = compound: COc1nc(N)nc2c1ncn2[C@@H]1O[C@H](CO)[C@@H](O)[C@@H]1O [Nelarabine] + CCNC(=O)c1noc(-c2cc(C(C)C)c(O)cc2O)c1-c1ccc(CN2CCOCC2)cc1 [Luminespib] (partner 0.01 µM)
Method in brief: as §1

Nelarabine + Dasatinib = compound: COc1nc(N)nc2c1ncn2[C@@H]1O[C@H](CO)[C@@H](O)[C@@H]1O [Nelarabine] + Cc1nc(Nc2ncc(C(=O)Nc3c(C)cccc3Cl)s2)cc(N2CCN(CCO)CC2)n1 [Dasatinib] (partner 0.075 µM)
Method in brief: as §1

Nelarabine + AZD7762 = compound: COc1nc(N)nc2c1ncn2[C@@H]1O[C@H](CO)[C@@H](O)[C@@H]1O [Nelarabine] + NC(=O)Nc1cc(-c2cccc(F)c2)sc1C(=O)N[C@H]1CCCNC1 [AZD7762] (partner 0.2 µM)
Method in brief: as §1

Cell Line | relative viability (Nelarabine + Navitoclax; first compound 0.01 µM) | relative viability (Nelarabine + Navitoclax; first compound 0.03162 µM) | relative viability (Nelarabine + Navitoclax; first compound 0.1 µM) | relative viability (Nelarabine + Navitoclax; first compound 0.3162 µM) | relative viability (Nelarabine + Navitoclax; first compound 1 µM) | relative viability (Nelarabine + Luminespib; first compound 0.01 µM) | relative viability (Nelarabine + Luminespib; first compound 0.03162 µM) | relative viability (Nelarabine + Luminespib; first compound 0.1 µM) | relative viability (Nelarabine + Luminespib; first compound 0.3162 µM) | relative viability (Nelarabine + Luminespib; first compound 1 µM) | relative viability (Nelarabine + Dasatinib; first compound 0.01 µM) | relative viability (Nelarabine + Dasatinib; first compound 0.03162 µM) | relative viability (Nelarabine + Dasatinib; first compound 0.1 µM) | relative viability (Nelarabine + Dasatinib; first compound 0.3162 µM) | relative viability (Nelarabine + Dasatinib; first compound 1 µM) | relative viability (Nelarabine + AZD7762; first compound 0.01 µM) | relative viability (Nelarabine + AZD7762; first compound 0.03162 µM) | relative viability (Nelarabine + AZD7762; first compound 0.1 µM) | relative viability (Nelarabine + AZD7762; first compound 0.3162 µM) | relative viability (Nelarabine + AZD7762; first compound 1 µM)
NCI-H2170 | 0.564 | 0.627 | 0.65 | 0.678 | 0.552 | 1.17 | 1.21 | 0.602 | 0.746 | 0.465 | 0.61 | 0.608 | 0.491 | 0.697 | 0.614 | 1.15 | 0.869 | 0.843 | 0.932 | 0.709
BEN | 0.0794 | 0.0676 | 0.187 | 0.0641 | 0.0472 | 0.323 | 0.131 | 0.371 | 0.488 | 0.331 | 0.296 | 0.308 | 0.353 | 0.386 | 0.298 | 0.746 | 0.683 | 0.711 | 0.683 | 0.674
HARA | 1.17 | 1.08 | 1.07 | 1.22 | 1.06 | 0.77 | 0.84 | 1 | 0.863 | 0.749 | 0.279 | 0.339 | 0.236 | 0.329 | 0.436 | 0.426 | 0.284 | 0.307 | 0.441 | 0.373
NCI-H1437 | 1.38 | 1.16 | 1.09 | 1.05 | 1.03 | 1.3 | 1.02 | 1.13 | 1.21 | 1.02 | 0.554 | 0.468 | 0.304 | 0.466 | 0.362 | 1.24 | 1.17 | 1.15 | 1.15 | 1.09
201T | 1.15 | 1.18 | 1.18 | 1.15 | 1.16 | 1.09 | 1.09 | 1.03 | 1.07 | 1.04 | 0.602 | 0.57 | 0.429 | 0.577 | 0.625 | 0.774 | 0.547 | 0.609 | 0.653 | 0.612
NCI-H23 | 0.804 | 0.821 | 0.783 | 0.854 | 0.763 | 0.226 | 0.201 | 0.23 | 0.225 | 0.21 | 1.01 | 0.838 | 0.588 | 0.927 | 0.819 | 0.205 | 0.227 | 0.241 | 0.232 | 0.25
EKVX | 1.14 | 0.897 | 0.856 | 1.08 | 0.982 | 0.946 | 0.771 | 0.809 | 0.796 | 0.915 | 0.509 | 0.468 | 0.396 | 0.575 | 0.608 | 0.977 | 0.63 | 0.606 | 0.717 | 0.732
NCI-H1915 | 0.799 | 0.687 | 0.767 | 0.805 | 0.796 | 1.31 | 0.87 | 0.912 | 0.841 | 0.988 | 0.337 | 0.36 | 0.281 | 0.296 | 0.364 | 0.747 | 0.728 | 0.687 | 0.704 | 0.733
LU99A | 0.918 | 0.821 | 0.845 | 0.765 | 0.758 | 0.239 | 0.235 | 0.339 | 0.282 | 0.279 | 0.522 | 0.506 | 0.36 | 0.51 | 0.797 | 0.365 | 0.284 | 0.335 | 0.312 | 0.424
LK-2 | 0.975 | – | 1.09 | 0.935 | 0.729 | 0.161 | – | 0.178 | 0.146 | 0.173 | 0.337 | – | 0.216 | 0.352 | 0.266 | 0.408 | – | 0.289 | 0.498 | 0.309
NCI-H1755 | 1.06 | 0.846 | 0.555 | 1.14 | 1.03 | 0.463 | 0.456 | 0.755 | 0.539 | 0.56 | 0.457 | 0.349 | 0.135 | 0.506 | 0.479 | 0.473 | 0.455 | 0.425 | 0.516 | 0.474
NCI-H647 | 1.6 | 1.01 | 1.13 | 1.43 | 1.07 | 0.177 | 0.111 | 0.193 | 0.128 | 0.136 | 0.152 | 0.252 | 0.136 | 0.183 | 0.261 | 0.554 | 0.294 | 0.563 | 0.58 | 0.431
NCI-H1734 | 1.06 | 0.787 | 0.962 | 0.869 | 0.833 | 0.193 | 0.161 | 0.193 | 0.209 | 0.187 | 0.559 | 0.411 | 0.418 | 0.527 | 0.532 | 0.699 | 0.5 | 0.484 | 0.603 | 0.531
NCI-H727 | 0.496 | 0.384 | 0.376 | 0.424 | 0.377 | 0.305 | 0.377 | 0.351 | 0.469 | 0.298 | 0.318 | 0.418 | 0.295 | 0.249 | 0.44 | 0.497 | 0.525 | 0.463 | 0.543 | 0.463
